# Patent US20220280526A1, “AGENT FOR THE TREATMENT OF PSORIASIS” (EBERHARD KARLS UNIVERSITAET TUEBINGEN MEDIZINISCHE FAKULTAET, priority 2019, published 2022)
# Entries after “also recorded” stand apart in the source; their conditions may differ.
# Key:
# [1] = tested on: EZH2-STAT3 interaction; assay: Co-immunoprecipitation of EZH2 and STAT3 in HaCaT cells; assay type: cell-based; conditions: 30 min IL-36α
# Description: Cells were lysed by mechanical disruption using standard lysis buffer (50 mM Tris-HCl pH 7.5, 150 mM NaCl, 1% NP-40, lx Protease inhibitor cocktail, Roche). Subsequently, lysates were sonicated for 5 minutes at high power (Bioruptor, Diagenode), followed by pre-clearing of the lysates with protein A/G PLUS agarose beads (Santa Cruz, sc-2003) for 1 h at 4° C. Precleared lysates were incubated either with antibodies specific for CDK4 (Cell Signaling, 12790), CDK6 (Sigma, HPA002637), EZH2 (Cell Signaling, 5246), STAT3 (MA1-13042, Thermo Fisher) or β-Gal antibody (sc-19119, Santa Cruz) as an IgG control, overnight at 4° C. For endogenous IPs immune complexes were precipitated with protein A/G PLUS agarose beads and eluted by 6×SDS-PAGE sample buffer.
# [2] = tested on: EZH2; assay: EZH2 phosphorylation in keratinocytes (immunoblot); assay type: cell-based, human; conditions: IL-36α- or IL-17A/TNFα-treated keratinocytes
# Description: (§1) HaCaT cells were maintained in DMEM with 10% FCS and antibiotics. Human primary keratinocytes were freshly isolated from foreskin and maintained in CnT-07S medium with gentamycin (CELLnTEC). Recombinant human IL-36α (aa 6-158) and mouse IL-36α (aa 6-160) were purchased from R&D Systems. Recombinant IL-17A (11340174), TNFα (11343013) and IL-1β (11340013) were ordered from Immunotools. Flagellin (vac-fla) and poly I:C (vac-pic) were purchased from Invivogen. In cell culture experiments, the cytokines were used at the following concentrations, as described previously: IL-36α (100 ng/mL), IL-17A (200 ng/mL), TNFα (10 ng/mL) and IL-1β (100 ng/mL). Flagellin was applied at 10 ng/mL and poly(I:C) was added at a final concentration of 100 ng/mL. […] When indicated, cells were starved for 2 h prior to cytokine treatment, by removing cell culture supplements from the growth medium.
# (§2) Western blot analysis was performed as described before. […]
# [3] = tested on: IκBζ (NFKBIZ) expression; assay: IκBζ expression in cytokine-stimulated primary human keratinocytes (immunoblot, qPCR); assay type: cell-based; conditions: 1 h cytokine, abemaciclib 16 μM, palbociclib 50 μM
# Description: Gene expression analyses were performed as described. Relative gene expression was analyzed using self-designed primers ordered at Metabion (not shown). Relative mRNA levels were calculated by normalization to the human reference gene RPL37A or the mouse reference gene Actin using the 2-ΔΔCt method.
# [4] = tested on: STAT3; assay: STAT3 phosphorylation in primary human keratinocytes (immunoblot); assay type: cell-based; conditions: after stimulation with IL-36α
# Description: as §1, §2
# [5] = tested on: IκBζ expression; assay: IκBζ expression in synchronized HaCaT cells stimulated with IL-36α; assay type: cell-based; conditions: 1 h IL-36α
# Description: Synchronization of the cells with a double thymidine block was performed as described before. After the second thymidine block, cells were released in normal medium. At 0, 4, 10 and 14 h after release, cells were stimulated with IL-36α and/or abemaciclib for 1 h. Propidium iodide staining was performed by flow cytometry (LSRII, Becton Dickson) to detect the cell cycle phase at the time point of cell harvest.
# Western blot analysis was performed as described before. The following antibodies were used and purchased from Cell Signaling: anti-IκBζ (9244), anti-phospho-STAT3 at Tyr705 (9145), anti-phospho-STAT3 at Ser727 (9134), anti-STAT3 (12640), anti-p65 (8242), anti-EZH2 (5246), anti-pRB (phospho-RB at Ser807/811; 8516), anti-FoxM1 (5436), anti-H3 (4499), anti-CDK4 (12790), anti-CDK6 (13331), anti-CDK9 (2316), anti-cyclin D1 (2978), anti-cyclin D2 (3741), anti-cyclin D3 (2936), anti-cJUN (9165), anti-H3K27me3 (9733), anti-GAPDH (2118), anti-H3 (9715) and anti-β-actin (3700). Anti-β-Gal (sc377257) and anti-GFP (sc9996) were obtained from Santa Cruz Biotechnology. Anti-pEZH2 at T345 (61242) anti-pEZH2 at T487 (12820) were purchased from Active Motif and anti-pan-methyl-lysine antibody was purchased from Enzo (ADI-KAP-TF121-E). For detection of mouse IκBζ, a self-made antibody raised against peptides […] (SEQ ID NO:3) and […] (SEQ ID NO:4) was applied.
# [6] = tested on: IL-36-mediated psoriasis-like dermatitis; assay: IL-36α-triggered psoriasis-like dermatitis mouse model, topical treatment of ears; assay type: in vivo, C57BL/6 mice
# Description: Experiments were conducted in accordance with the German law guidelines of animal care. […] At day 7, mice were sacrificed and analysed. For IL-36α-mediated psoriasis induction, ears of male C57BL/6 mice (8-12 weeks old) were treated by intradermal injections using 1 μg murine IL-36α (aa 8-160, R&D) or PBS control for 5 consecutive days. […] Inhibitors were topically applicated 6 h before intradermal injections of IL-36α or PBS were applied. Mice were sacrificed and analysed at day 6. Ear sections from mice were fixed in 10% formalin (Carl Roth) and subsequently embedded in paraffin. 5-μm sections were prepared and incubated with the following antibodies from Cell Signaling: pSTAT3 (9145), pRB (8516) and H3K27me3 (9733). For staining of human skin samples, EZH2 antibody (Cell Signaling, 5246) was used. Antigen retrieval was performed in 1 mM EDTA pH 8.0 for pSTAT3, and 10 mM citrate buffer pH 6.0+0.5% Triton X-100 for EZH2, H3K27me3 and pRB. After incubation with peroxidase-coupled secondary antibodies, sections were stained with DAB substrate.
# [7] = tested on: STAT3, EZH2, CDK4 and CDK6 binding to the NFKBIZ promoter region; assay: Chromatin immunoprecipitation at the NFKBIZ promoter in IL-36α-stimulated HaCaT cells; assay type: cell-based; conditions: 30 min IL-36α
substance,measurement,setting,value
Abemaciclib mesylate,interaction of EZH2 with STAT3,[1],abrogate
same,inducible phosphorylation of EZH2 at threonine 345 (T345),[2],completely abrogated
same,IL-36α- or IL-17A/TNFα-mediated induction of IκBζ expression,[3],completely blocked; also recorded: abolished
same,phosphorylation of STAT3 at threonine 727 (T727),[4],remained unaffected
same,phosphorylation of STAT3 at tyrosine 705 (Y705),[4],completely absent
same,IL-36α-triggered IκBζ induction in all phases of the cell cycle,[5],completely suppressed
same,"IL-36-mediated expression of IκBζ, phosphorylation of EZH2 at T345 and activation of STAT3 (pSTAT3 Y705) in skin",[6]; immunoblot of ear skin at day 6,suppressed
same,keratinocyte hyperproliferation and immune cell infiltration,"[6]; intradermal IL-36α 5 days, topical inhibitor, abemaciclib 0.02 mg, CPI-169 0.05 mg, day 6",effectively blocked
same,"IκBζ target gene expression and key cytokine expression (Il17a, Il23a)",[6]; qPCR of skin samples,effectively blocked
same,recruitment of STAT3/EZH2/CDK4/6 multi-protein complex to the NFKBIZ promoter region,[7],abrogated
